From patent publication US20230048349A1, “RECIRCULATING AQUACULTURE SYSTEM AND METHODS THEREOF” (THE TEXAS A&M UNIVERSITY SYSTEM, priority 2021, published 2023)
≈ marks a conversion by molar mass, not a printed value. Read-outs that look alike come from different tables or passages of the source. Marks after values point to notes of the source that are not given here.

Experiments:
[1] = test system: S. agalactiae; assay: Growth inhibition test of SCFAs and MCFAs (Example 15); format: cell-based, Streptococcus agalactiae; settings: for IC50: S. agalactiae
Procedure: (§1) Growth Inhibition Tests: Antipathogenic Properties of SCFAs and MCFAs. Growth inhibition tests to measure optical density (OD600) and calculate % inhibition efficiencies, minimum, and median inhibitory concentrations (MIC and IC50) were conducted as described previously. […] The PHA intermediates (SCFAs and MCFAs) are water-soluble, representing the PHA degradation products in the gastrointestinal tract of aquatic animals, allowing to assess the antipathogenic efficacy of PHA under the best scenario. The culture tubes were incubated at 30° C. under 150 rpm. The growths of tested strains in the absence of PHA intermediates were used as controls.

[2] = test system: V. campbellii and A. hydrophila; assay: Growth inhibition test of SCFAs and MCFAs, ranges over two G− pathogens (Example 15); format: cell-based, Vibrio campbellii; Aeromonas hydrophila; settings: range over V. campbellii and A. hydrophila; for MIC: LB pH 6, 5-125 mM tested; for IC50: LB pH 6
Procedure: as §1

[3] = test system: Vibrio-challenged Artemia; assay: Artemia pathogen challenge test (Example 17); format: in vivo, Artemia franciscana; settings: after three days; supplement 1 g/L; V. campbellii 10^8 cells/ml
Procedure: The pathogen challenge tests were designed to determine the effects of individual supplements on the survival of Vibrio-challenged Artemia. The pathogen challenge tests were conducted as described in the starvation tests, except that Artemia cultures (one day old) with each of the abovementioned supplements (1 g/L) were exposed to a lethal dose (10^8 cells/ml) of live V. campbellii as determined previously. In all treatments, 250 mg/L of yeast was added initially as a feed. Unchallenged and Vibrio-challenged Artemia were used as negative and positive controls, respectively. The survival of Artemia was monitored daily for three days.

[4] = test system: V. campbellii and A. hydrophila; assay: Growth inhibition test, ranges stated over two G− pathogens (Example 8); format: cell-based, Vibrio campbellii; Aeromonas hydrophila; settings: range over V. campbellii and A. hydrophila
Procedure: (§2) These compounds were used to assess the antimicrobial efficacy of PHB and chitosan under the best scenario. Various concentrations of PHB intermediates (5-125 mM), COS (0.2-3 mM), or mixtures of 3-HB+COS (i.e., Mixture 1 (4 mM 3-HB+0.1 mM COS), Mixture 2 (12 mM 3-HB+0.3 mM COS), Mixture 3 (24 mM 3-HB+0.6 mM COS), and Mixture 4 (60 mM 3-HB+1.5 mM COS)) were used based on previously in vitro antimicrobial studies using PHB or chitosan. For S. agalactiae and RHA1, tryptic soy broth (TSB) and Reasoner's 2A (R2A) media were used, respectively. The pH of all growth mediums (i.e., LB, TSB, or R2A) was adjusted to 6.0 based on the typical pH value found in aquatic animals' gut and the optimized antimicrobial activity of PHB. The culture tubes were inoculated with 2% v/v of the pre-grown strains (optical density (OD600) of 1.0) and incubated at 30° C. under 150 rpm. The bacterial growth was determined by absorbance at OD600. The growth of tested strains in the absence of PHB or chitosan intermediates were used as controls. The inhibition efficiency (%) was calculated using Eq. (1): […]
(§3) where ODcontrol and ODsample refer to the highest optical densities of the growth curves for the controls and samples, respectively.

[5] = test system: Vibrio campbellii; assay: Growth inhibition test in liquid medium (OD600); format: cell-based
Procedure: as §2, §3

[6] = test system: Aeromonas hydrophila; assay: Growth inhibition test in liquid medium (OD600); format: cell-based; settings: A. hydrophila; for IC50: 4-parameter logistic fit
Procedure: as §2, §3

[7] = test system: Streptococcus agalactiae; assay: Growth inhibition test in liquid medium (OD600); format: cell-based; settings: S. agalactide; for MIC: pH 6.0, 30° C.
Procedure: as §2, §3

[8] = test system: Escherichia coli; assay: Growth inhibition test in liquid medium (OD600); format: cell-based; settings: E. coli; for MIC: pH 6.0, 30° C.
Procedure: as §2, §3

[9] = test system: Bacillus megaterium; assay: Growth inhibition test in liquid medium (OD600); format: cell-based; settings: B. megaterium; for IC50: 4-parameter logistic fit; for MIC: pH 6.0, 30° C.
Procedure: as §2, §3

[10] = test system: Rhodococcus jostii RHA1; assay: Growth inhibition test in liquid medium (OD600); format: cell-based; settings: R. jostii RHA1; for IC50: 4-parameter logistic fit; for MIC: pH 6.0, 30° C.
Procedure: as §2, §3

[11] = Vibrio campbellii, read-out: Inhibition Efficiency (%)

CCCCCCCC(=O)O [octanoate]
MIC ([1]; stated for all pathogenic growth, incl. S. agalactiae): < 5 mM
MIC [2]: < 5 mM
survival of Vibrio-challenged Artemia [3]: 80%

CCCC(=O)O [Butyrate, butyrate]
IC50 ([1]; Streptococcus agalactiae): 57.5 mM
IC50 [2]: 8.97 to 30.9 mM
survival of Vibrio-challenged Artemia [3]: 10%
IC50 [4]: 5.8 to 39.7 mM
IC50 ([5]; Vibrio campbellii): 3.82 mM
MIC ([5]; Vibrio campbellii, pH 6): 25.7 mM (≈ 2260 µg/mL)
inhibition at 5000 µM [5, 11]: 9.14 ± 8.9%
inhibition at 25000 µM [5, 11]: 100%
inhibition at 50000 µM [5, 11]: 100%
inhibition at 125000 µM [5, 11]: 100%
inhibition at 5000 µM ([6]; Aeromonas hydrophila, 5 mM, read-out: Inhibition Efficiency (%)): 0.8 ± 0.22%
inhibition at 25000 µM ([6]; Aeromonas hydrophila, 25 mM, read-out: Inhibition Efficiency (%)): 12.7 ± 1.8%
inhibition at 50000 µM ([6]; Aeromonas hydrophila, 50 mM, read-out: Inhibition Efficiency (%)): 72.4 ± 5.4%
inhibition at 125000 µM ([6]; Aeromonas hydrophila, 125 mM, read-out: Inhibition Efficiency (%)): 100%
IC50 ([6]; Aeromonas hydrophila): 39.7 mM
inhibition at 5000 µM ([7]; Streptococcus agalactiae, 5 mM, read-out: Inhibition Efficiency (%)): 0.75 ± 0.01%
inhibition at 25000 µM ([7]; Streptococcus agalactiae, 25 mM, read-out: Inhibition Efficiency (%)): 0.43 ± 0.15%
inhibition at 50000 µM ([7]; Streptococcus agalactiae, 50 mM, read-out: Inhibition Efficiency (%)): 10.2 ± 1.83%
inhibition at 125000 µM ([7]; Streptococcus agalactiae, 125 mM, read-out: Inhibition Efficiency (%)): 100%
IC50 ([7]; Streptococcus agalactiae, 4-parameter logistic fit): 83.4 mM
inhibition at 5000 µM ([8]; Escherichia coli, 5 mM, read-out: Inhibition Efficiency (%)): 5 ± 0.89%
inhibition at 25000 µM ([8]; Escherichia coli, 25 mM, read-out: Inhibition Efficiency (%)): 10.7 ± 12%
inhibition at 50000 µM ([8]; Escherichia coli, 50 mM, read-out: Inhibition Efficiency (%)): 23 ± 6.24%
inhibition at 125000 µM ([8]; Escherichia coli, 125 mM, read-out: Inhibition Efficiency (%)): 71.1 ± 8.25%
IC50 ([8]; Escherichia coli, 4-parameter logistic fit): 61.2 mM
inhibition at 5000 µM ([9]; Priestia megaterium, 5 mM, read-out: Inhibition Efficiency (%)): -5.8 ± 1.74%
inhibition at 25000 µM ([9]; Priestia megaterium, 25 mM, read-out: Inhibition Efficiency (%)): 15.5 ± 1.56%
inhibition at 50000 µM ([9]; Priestia megaterium, 50 mM, read-out: Inhibition Efficiency (%)): 100%
inhibition at 125000 µM ([9]; Priestia megaterium, 125 mM, read-out: Inhibition Efficiency (%)): 100%
IC50 ([9]; Priestia megaterium, read-out: IC50): 26.2 mM
MIC ([9]; Priestia megaterium, read-out: MIC): 53 mM (≈ 4670 µg/mL)
IC50 [10]: N.I.
MIC [10]: N.I.
inhibition at 5000 µM ([10]; Rhodococcus jostii, 5 mM, read-out: Inhibition Efficiency (%)): -25.2 ± 4.93%
inhibition at 25000 µM ([10]; Rhodococcus jostii, 25 mM, read-out: Inhibition Efficiency (%)): -70.8 ± 2.65%
inhibition at 50000 µM ([10]; Rhodococcus jostii, 50 mM, read-out: Inhibition Efficiency (%)): -92.2 ± 21.6%
inhibition at 125000 µM ([10]; Rhodococcus jostii, 125 mM, read-out: Inhibition Efficiency (%)): 100%

CCCCC(=O)O [valerate]
IC50 [1]: 30.2 mM
IC50 [2]: 0.84 to 11.1 mM
MIC [2]: 62.4 to 77.9 mM
survival of Vibrio-challenged Artemia [3]: 10%

CC(O)CC(=O)O (stereo not drawn) [3-HB, 3-hydroxybutyrate]
IC50 [4]: 53 to 58 mM
MIC [4]: 111.5 to 133 mM
Inhibition Efficiency (%) ([5]; 5 mM, V. campellii): 1.27 ± 1.07%
Inhibition Efficiency (%) ([5]; 25 mM, V. campellii): 14.0 ± 1.78%
Inhibition Efficiency (%) ([5]; 50 mM, V. campellii): 42.4 ± 5.88%
Inhibition Efficiency (%) ([5]; 125 mM, V. campellii): 100%
IC50 ([5]; V. campellii, 4-parameter logistic fit, read-out: IC50): 53 mM
MIC ([5]; V. campellii, pH 6.0, 30° C.): 111.5 mM (≈ 11600 µg/mL)
Inhibition Efficiency (%) ([6]; 5 mM): 2.7 ± 1.26%
Inhibition Efficiency (%) ([6]; 25 mM): 24.1 ± 2.70%
Inhibition Efficiency (%) ([6]; 50 mM): 31.1 ± 3.59%
Inhibition Efficiency (%) ([6]; 125 mM): 100%
IC50 [6]: 57.7 mM
MIC ([6]; pH 6.0, 30° C.): 133 mM (≈ 13800 µg/mL)
Inhibition Efficiency (%) ([7]; 5 mM): 0.75 ± 0.01%
Inhibition Efficiency (%) ([7]; 25 mM): 0.75 ± 0.03%
Inhibition Efficiency (%) ([7]; 50 mM): 0.75 ± 0.01%
Inhibition Efficiency (%) ([7]; 125 mM): 13.8 ± 0.15%
MIC [7]: 945 mM (≈ 98400 µg/mL)
Inhibition Efficiency (%) ([8]; 5 mM): 2.68 ± 0.67%
Inhibition Efficiency (%) ([8]; 25 mM): 9.15 ± 3.12%
Inhibition Efficiency (%) ([8]; 50 mM): 24.5 ± 2.23%
Inhibition Efficiency (%) ([8]; 125 mM): 26.5 ± 1.34%
MIC [8]: 510 mM (≈ 53100 µg/mL)
Inhibition Efficiency (%) ([9]; 5 mM): 6.52 ± 3.48%
Inhibition Efficiency (%) ([9]; 25 mM): −1.35 ± 1.04%
Inhibition Efficiency (%) ([9]; 50 mM): 12.9 ± 0.94%
Inhibition Efficiency (%) ([9]; 125 mM): 17.0 ± 14.4%
IC50 [9]: N.I.
MIC [9]: N.I.
Inhibition Efficiency (%) ([10]; 5 mM): −32.3 ± 2.20%
Inhibition Efficiency (%) ([10]; 25 mM): −87.3 ± 4.00%
Inhibition Efficiency (%) ([10]; 50 mM): −61.7 ± 0.58%
Inhibition Efficiency (%) ([10]; 125 mM): 100%
IC50 [10]: N.I.
MIC [10]: N.I.

chitosan oligosaccharide lactate [COS]
Inhibition Efficiency (%) ([5]; 0.2 mM, V. campellii): 76.5 ± 1.13%
Inhibition Efficiency (%) ([5]; 0.6 mM, V. campellii): 93.0 ± 1.10%
Inhibition Efficiency (%) ([5]; 1.2 mM, V. campellii): 95.0 ± 0.23%
Inhibition Efficiency (%) ([5]; 3 mM, V. campellii): 100%
MIC ([5]; V. campellii, pH 6.0, 30° C.): 2.36 mM
Inhibition Efficiency (%) ([6]; 0.2 mM): 4.81 ± 0.11%
Inhibition Efficiency (%) ([6]; 0.6 mM): −7.30 ± 0.40%
Inhibition Efficiency (%) ([6]; 1.2 mM): 77.6 ± 0.28%
Inhibition Efficiency (%) ([6]; 3 mM): 74.2 ± 0.61%
Inhibition Efficiency (%) ([7]; 0.6 mM): 95.4 ± 0.01%
Inhibition Efficiency (%) ([7]; 1.2 mM): 100%
Inhibition Efficiency (%) ([7]; 3 mM): 100%
MIC [7]: 1.08 mM
Inhibition Efficiency (%) ([8]; 0.2 mM): 60.6 ± 4.56%
Inhibition Efficiency (%) ([8]; 0.6 mM): 90.6 ± 0.91%
Inhibition Efficiency (%) ([8]; 1.2 mM): 100%
Inhibition Efficiency (%) ([8]; 3 mM): 100%
MIC [8]: 1.88 mM
Inhibition Efficiency (%) ([9]; 0.2 mM): 100%
Inhibition Efficiency (%) ([9]; 0.6 mM): 100%
Inhibition Efficiency (%) ([9]; 1.2 mM): 100%
Inhibition Efficiency (%) ([9]; 3 mM): 100%
MIC [9]: <0.2^c mM
Inhibition Efficiency (%) ([10]; 0.2 mM): 100%
Inhibition Efficiency (%) ([10]; 0.6 mM): 100%
Inhibition Efficiency (%) ([10]; 1.2 mM): 100%
Inhibition Efficiency (%) ([10]; 3 mM): 100%
MIC [10]: <0.2 mM
